{
  "source": "patent US20210068400A1",
  "about": "“COMPOSITIONS CONTAINING COMBINATIONS OF NITROGEN-FIXING BACTERIA AND ADDITIONAL AGENTS AND THEIR USE IN FIXING NITROGEN IN PLANT SPECIES” (GRACE BREEDING NITROGEN FIXATION TECHNOLOGIES LTD., priority 2018, published 2021)",
  "key": {"[1]": {"test_system": "maize plants", "assay": "Maize field trial 3, growth parameters (Example 3)", "assay_type": "in vivo, maize (Zea mays)", "conditions": "3 months after sowing", "protocol": "In some of the treatments (as explained hereinbelow), some or all of the active substances were added in the form of granules to the furrow in which the plants had been seeded. The granules were prepared by soaking 1 kg of Perlite granules (having a mean diameter greater than 2 mm) in the following solution: • 50 ml of the concentrated activating agent emulsion (as described above). • 930 ml water. • 10 ml Rhizobium leguminosarum biovar viceae (Cell-Tech™ granular; Monsanto Company) (Granule-R). or Bacillus subtilis (Granule-B) • 10 ml Calirus. • 1000 ml total\nThis trial was sown during the Israeli growing season of 2018 using the pioneer maize silage variety number W86. The field was washed from possible nitrogen using sprinklers irrigation. The combination treatments administered to the plants which are of relevance for the present study were: • A. Positive Control—full commercial nitrogen. The plants were treated with 30 units of nitrogen per 1000 m^2 by means of applying to this area 60 kg urea containing 46% urea. • B. Negative Control—no added nitrogen. • C. Rhizobium leguminosarum biovar viceae, 3% (containing 10^9 organisms) was added to the activating agent emulsion described in ‘general methods’ hereinabove, to which Calirus (1%) was also added. Perlite granules were soaked with this mixture as described hereinabove. The granules were added to the sowing trench at a density of 2 Kg granules per 1000m^2. • D. As for treatment C, but with the granule quantity adjusted to 1 Kg granules per 1000 m^2. • E. As for treatment C, but with the granule quantity adjusted to 4 Kg granules per 1000 m^2.\nThe following parameters were monitored at one timepoint during growth of the maize plants, 3 months after they were sown: • Plant stem caliber • Leaf width • Cob weight (taken from the main stems of 10 plants) • Total plant weight (10 plants) • Plant height\nThe statistical significance of the difference between the various treatment groups was determined using the Tukey-Kramer HSD test."}, "[2]": {"test_system": "wheat (Galil variety)", "assay": "Wheat field trial 5 (Example 5)", "assay_type": "in vivo", "protocol": "Two different agricultural sites in Israel were selected for field trials in which the effects of compositions of the present invention on wheat crops were investigated. The various compositions were administered to the growing wheat (Galil variety) as described in Examples 3 and 4, hereinabove. The treatments used in this study are as follows:\nB. Negative control (no nitrogen source)\nA. Granules prepared according to Example 3, applied at a density of 4 kg granules per 1000 m^2.\nC. Granules prepared according to Example 3, applied at a density of 2 kg granules per 1000 m^2.\nF. Positive control—full commercial nitrogen. The plants were treated with 30 units of nitrogen per 1000 m^2 by means of applying to this area 60kg urea containing 46% urea.\nThe following parameters were measured in the wheat, in order to assess the effect of the treatment compositions on plant growth: […]"}, "[3]": {"test_system": "maize plants", "assay": "Maize field trial 4, total leaf nitrogen content (Example 4)", "assay_type": "in vivo, maize (Zea mays)", "conditions": "maize leaves, 3 months after sowing", "protocol": "Generally, the nitrogen content of the growing plant in the field study was measured using a spectrophotometric method based on the standard method “4500-NO3_I. Cadmium Reduction Flow Injection Method” published by the Standard Methods Organization (<https://www.standardmethods.org/doi/full/10.2105/SMWW.2882.089). This method is based on the conversion of nitrates in an aqueous plant material extract to nitrites by passing the extract through a copperized cadmium column. Subsequent processing steps convert the nitrites to a magenta-colored dye having an absorbance peak at 540 nm.\nThis trial was sown during the Israeli growing season of 2018 using the pioneer maize silage variety number W86. The field was washed from possible nitrogen using sprinkler irrigation. The combination treatments administered to the plants which are of relevance for the present study were: • PC. Positive Control—full commercial nitrogen. The plants were treated with 30 units of nitrogen per 1000 m^2 by means of applying to this area 60 kg urea containing 46% urea. • NC. Negative Control—no nitrogen. • 1. […]\nThe average total leaf nitrogen content was measured at one timepoint during growth of the maize plants, 3 months after sowing."}, "[4]": {"test_system": "Tomato seedlings inoculated with bacterial and fungal cocktails", "assay": "Inoculation of tomato seedlings", "assay_type": "in vivo", "conditions": "5 days following treatment; concentration 3; FIG. 31", "protocol": "Tomato seedlings were inoculated with 10 cc of each test mixtures containing Rhizobium species and various combinations of activating phytochemicals. (including the bacterial and fungal cocktails described below) […].\nThe health of each plant was assessed 5 days following treatment, using a semi-quantitative inoculation index (0=healthy, 5=dead).\nThe composition and concentration of the various test mixtures, as well as the number of different activating agents used in combination are summarized in the following two tables (all concentrations are given as % v/v): […]"}, "[5]": {"test_system": "RAW 264.7 macrophages", "assay": "Cell viability, Alamar Blue assay", "assay_type": "cell-based", "protocol": "(§1) RAW 264.7 macrophages were grown in flat-bottomed flasks using a standard growth medium (DMEM supplemented with 5% FBS, antibiotics and glutamine. The cells were maintained in accordance with standard procedures well known in the art. After the cells reached confluence, they were removed from the flasks using mechanical means and then concentrated by centrifuging and resuspended in a small volume of fresh culture medium. The cell concentration was adjusted with growth medium in order that about 75,000 cells could be added to each well of a 96-well plate. A combination of 25 μg/mL LPS and 10 U/ml IFN-γ DMEM, was used for activation of the macrophages. The various test agents were added to the wells one hour prior to activation. The cells were then incubated for a further 24 hours, prior to assaying the inflammatory mediator production and cell viability.\nThe Alamar Blue assay of viability was performed by adding 100 μl of a 10% Alamar Blue solution to each well and incubating at 37° C. for 1-2 hr. Fluorescence was measured (excitation at 545 nm and emission at 595 nm) and expressed as a percentage of the values in untreated control cells."}, "[6]": {"test_system": "TNF-α production", "assay": "Inhibition of TNF-α production in activated RAW 264.7 macrophages (ELISA)", "assay_type": "cell-based", "conditions": "Mus musculus, RAW264.7; RAW 264.7 macrophages activated with LPS and IFN-γ, 24 hours", "protocol": "as §1, with “viability. A sandwich ELISA was used to determine TNF-α concentration. The primary antibody was used at a concentration of 0.5 μg/mL in PBS. Serial dilutions of TNF-α standard from 0 to 1000 pg/mL in diluent (0.05% Tween-20, 0.1% BSA in PBS) were used as internal standard. TNF-α was detected with a biotinylated second antibody and an avidin peroxidase conjugate with TMB as detection reagent. The color development was monitored at 655 nm, taking readings after every 5 minutes. After 25 minutes, the reaction was stopped using 0.5 M sulphuric acid and the absorbance was measured at 450 nm.” for “viability.”"}, "[7]": {"test_system": "NO production", "assay": "Inhibition of NO production in activated RAW 264.7 macrophages (Griess assay)", "assay_type": "cell-based", "conditions": "Mus musculus, RAW264.7, 24 h, RAW 264.7 macrophages activated with LPS and IFN-γ", "protocol": "as §1, with “viability. The production of NO by the macrophages subjected to the various treatments was assayed using the Griess reagent (equal volumes of 1% sulphanilamide and 0.1% […]-diamine in 5% HCl). 70 μl of supernatant from each test well was transferred to a fresh 96-well plate and mixed with 70 μL of Griess reagent and the violet color produced was measured at 540 nm.” for “viability.”"}, "[8]": {"test_system": "Clavibacter michiganensis sp. Michiganensis (Cmm)", "assay": "Survival of Cmm after co-incubation in test tubes, colony count", "assay_type": "cell-based", "conditions": "Example 12, contact time 3 days", "protocol": "Various combinations of a 3% Rhizobium sp. preparation together with an emulsion containing 5 activating agents (E-91) or one of the components of said emulsion (naringin) and a culture of the plant pathogen Cmm (10^5-10^6 CFU/ml final concentration) were incubated in test tubes for up to 3 days (4 replicates per combination). At the end of the 3 day incubation period the contents of the test tubes containing all these components were plated on to growth medium and the numbers of colonies of Cmm and Rhizobium species for each test condition (CFU/ml) were measured.\nThe emulsion containing the 5 activating agents (Sclaerol, Naringin, Nootkatone, Stevia and CBD; referred to in the results table hereinbelow as 5% plant emulsion E-91) was prepared as described in Example 6, hereinabove.\nThis study was conducted in essentially the same manner as the study presented in Example 12. In the present study, however, the effect of the 5-component activating agent emulsion (5% plant emulsion E91) is compared with the following combinations of activating agents: […]"}, "[9]": {"conditions": "at the IC50 for inhibition of NO production"}, "[10]": {"conditions": "at the IC50 for inhibition of TNF-α production"}},
  "note": "Several values for one entry are separate records, joined by “and”; a condition that tells them apart may be missing. Equal entries are not always repeated.",
  "data": [
    {"smiles": "NC(N)=O", "note": "[A. Positive control - full nitrogen, urea]", "values": [
      {"measurement": "Total plant weight (10 plants)", "setting": "[1]; 10 plants", "result": 11.81, "unit": "kg"},
      {"measurement": "Mean cob weight (10 plants)", "setting": "[1]; cobs from the main stems of 10 plants", "result": 3.96, "unit": "kg"},
      {"measurement": "Mean Plant stem caliber", "setting": "[1]; maize", "result": 37.2, "unit": "mm"},
      {"measurement": "Mean leaf width", "setting": "[1]; maize", "result": 10.5, "unit": "cm"},
      {"measurement": "Plant height", "setting": "[1]; mean of 10 plants", "result": 2.72, "unit": "m"},
      {"measurement": "Average wheat grain yield", "setting": "[2]; from each of 6 2 m plots", "result": 1.11, "unit": "kg"},
      {"measurement": "Flag leaf width", "setting": "[2]; wheat", "result": 2.0, "unit": "cm"},
      {"measurement": "Main shoot diameter", "setting": "[2]; wheat", "result": 0.42, "unit": "cm"},
      {"measurement": "No. of side shoots", "setting": "[2]; wheat", "result": 1.3},
      {"measurement": "Average nitrogen content, flag leaves", "setting": "[2]; wheat flag leaf", "result": 2.94},
      {"measurement": "AVERAGE N2 CONTENT (total leaf nitrogen)", "setting": "[3]", "result": 3.16}
    ]},
    {"smiles": "C=C(C)[C@@H]1CCC(C)=C[C@H]1c1c(O)cc(CCCCC)cc1O", "note": "[Cannabidiol (CBD; hemp oil), cannabidiol]", "values": [
      {"measurement": "Protection of tomato plants (inoculation index 0=healthy, 5=dead)", "setting": "[4]", "result": "highly active even when present as the sole activating agent"}
    ]},
    {"smiles": "C[C@@H]1O[C@@H](O[C@H]2[C@H](Oc3cc(O)c4c(c3)O[C@H](c3ccc(O)cc3)CC4=O)O[C@H](CO)[C@@H](O)[C@@H]2O)[C@H](O)[C@H](O)[C@H]1O", "note": "[Naringin]", "values": [
      {"measurement": "Cell viability (% of cell survival)", "setting": "[5]; [9]", "result": "90.10 ± 4.2", "unit": "%"},
      {"measurement": "Cell viability (% of cell survival)", "setting": "[5]; [10]", "result": "91.50 ± 5.2", "unit": "%"},
      {"measurement": "IC50", "setting": "[6]", "result": 90, "unit": "µg/mL"},
      {"measurement": "IC50", "setting": "[7]", "result": 40, "unit": "µg/mL"},
      {"measurement": "Cmm count, MEAN", "setting": "[8]; mean of 4 replicates", "result": "7.75 × 10^5 CFU/ml"},
      {"measurement": "Cmm count, individual replicates", "setting": "[8]; replicates 1-4, listed as Cmm + 0.1% Naringin", "result": "6.5 × 10^5 CFU/ml and 8.3 × 10^5 CFU/ml and 7.7 × 10^5 CFU/ml and 8.6 × 10^5 CFU/ml"}
    ]},
    {"smiles": "C=C[C@](C)(O)CC[C@@H]1[C@@]2(C)CCCC(C)(C)[C@@H]2CC[C@@]1(C)O", "note": "[Sclareol]", "values": [
      {"measurement": "Cell viability (% of cell survival)", "setting": "[5]; [9]", "result": "96.20 ± 2.1", "unit": "%"},
      {"measurement": "Cell viability (% of cell survival)", "setting": "[5]; [10]", "result": "95.30 ± 2.2", "unit": "%"},
      {"measurement": "IC50", "setting": "[6]", "result": 80, "unit": "µg/mL"},
      {"measurement": "IC50", "setting": "[7]", "result": 40, "unit": "µg/mL"}
    ]},
    {"smiles": "C=C1C[C@@]23CC[C@H]4[C@@](C)(CCC[C@@]4(C)C(=O)O)[C@@H]2CC[C@]1(O)C3", "note": "[Steviol]", "values": [
      {"measurement": "IC50", "setting": "[6]", "result": 80, "unit": "µg/mL"}
    ]}
  ]
}
